US12637473B2, “MDM2 protein degraders” (THE REGENTS OF THE UNIVERSITY OF MICHIGAN, priority 2016, dated 2026)

Test system: RS4; 11 cell line
Assay: CellTiter-Glo Luminescent Cell Viability Assay, cell growth inhibition
Format: cell-based
Settings: Homo sapiens, 96 h, 4 days
Protocol: Cell growth inhibitory activity of representative MDM2 protein degraders was determined using CellTiter-Glo® Luminescent Cell Viability Assay. Cells were seeded in 384-well white opaque cell culture plates at a density of 2,000 cells/well with serially diluted compounds and incubated at 37° C. in an atmosphere of 95% air and 5% CO2 for 4 days. Cell viability was determined using the CellTiter-Glo® Luminescent Cell Viability Assay Kit (Promega, Madison, WI) according to the manufacture's instruction. Briefly, a volume of CellTiter-Glo® Reagent equal to the volume of cell culture medium was added to each well, and then the plates were incubated at room temperature for 10-20 minutes. The luminescent signal was measured using a Tecan Infinite M1000 multimode microplate reader (Tecan, Morrisville, NC). The half maximal inhibitory concentration (IC50) was calculated using the GraphPad Prism 5 software (GraphPad Software, La Jolla, CA). Cpd. […] The structure of Cpd.

Structure (SMILES)	IC50 [nM]
O=C1CCC(N2Cc3c(NC(=O)CCOCCOCCOCCNC(=O)c4ccc(NC(=O)[C@@H]5NC6(CCCCC6)[C@@]6(C(=O)Nc7cc(Cl)ccc76)[C@H]5c5cccc(Cl)c5F)cc4)cccc3C2=O)C(=O)N1 (stereo partly drawn) [Cpd. No. 30, (3′R,4'S,5′R)-6″-chloro-4′-(3-chloro-2-fluorophenyl)-N-(4-((2-(2-(2-(3-((2-(2,6-dioxopiperidin-3-yl)-1-oxoisoindolin-4-yl)amino)-3-oxopropoxy)ethoxy)ethoxy)ethyl)carbamoyl)phenyl)-2″-oxodispiro[cyclohexane-1,2′-pyrrolidine-3′,3″-indoline]-5′-carboxamide]	13
CCN1[C@@H](C(=O)NC23CCC(C(=O)NCCOCCOCCNC(=O)COc4cccc5c4C(=O)N(C4CCC(=O)NC4=O)C5=O)(CC2)CC3)[C@H](c2cccc(Cl)c2F)[C@]2(C(=O)Nc3cc(Cl)ccc32)C12CCCCC2 (stereo partly drawn) [Cpd. No. 45, (3′R,4'S,5′R)-6″-chloro-4′-(3-chloro-2-fluorophenyl)-N-(4-((2-(2-(2-(2-((2-(2,6-dioxopiperidin-3-yl)-1,3-dioxoisoindolin-4-yl)oxy)acetamido)ethoxy)ethoxy)ethyl)carbamoyl)bicyclo[2.2.2]octan-1-yl)-1′-ethyl-2″-oxodispiro[cyclohexane-1,2′-pyrrolidine-3′,3″-indoline]-5′-carboxamide]	35
O=C1CCC(N2Cc3c(CCCOCCOCCNC(=O)c4ccc(NC(=O)[C@@H]5NC6(CCCCC6)[C@@]6(C(=O)Nc7cc(Cl)ccc76)[C@H]5c5cccc(Cl)c5F)cc4)cccc3C2=O)C(=O)N1 (stereo partly drawn) [Cpd. No. 35, (3′R,4'S,5′R)-6″-chloro-4′-(3-chloro-2-fluorophenyl)-N-(4-((2-(2-(3-(2-(2,6-dioxopiperidin-3-yl)-1-oxoisoindolin-4-yl)propoxy)ethoxy)ethyl)carbamoyl)phenyl)-2″-oxodispiro[cyclohexane-1,2′-pyrrolidine-3′,3″-indoline]-5′-carboxamide]	5.7
COc1cc(C(=O)NCCCOCCOCCOCCCNc2cccc3c2C(=O)N(C2CCC(=O)NC2=O)C3=O)ccc1NC(=O)[C@@H]1N[C@@H](CC(C)(C)C)[C@](C#N)(c2ccc(Cl)cc2F)[C@H]1c1cccc(Cl)c1F (stereo partly drawn) [Cpd. No. 58, (2R,3S,4R,5S)-3-(3-chloro-2-fluorophenyl)-4-(4-chloro-2-fluorophenyl)-4-cyano-N-(4-((3-(2-(2-(3-((2-(2,6-dioxopiperidin-3-yl)-1,3-dioxoisoindolin-4-yl)amino)propoxy)ethoxy)ethoxy)propyl)carbamoyl)-2-methoxyphenyl)-5-neopentylpyrrolidine-2-carboxamide]	14
Cc1ncsc1-c1ccc(CNC(=O)[C@@H]2C[C@@H](O)CN2C(=O)[C@@H](NC(=O)CCCCNC(=O)c2ccc(NC(=O)[C@@H]3NC4(CCCCC4)[C@@]4(C(=O)Nc5cc(Cl)ccc54)[C@H]3c3cccc(Cl)c3F)cc2)C(C)(C)C)cc1 [compound 41]	991
Cc1ncsc1-c1ccc(CNC(=O)[C@@H]2C[C@@H](O)CN2C(=O)[C@@H](NC(=O)CCOCCOCCNC(=O)c2ccc(NC(=O)[C@@H]3NC4(CCCCC4)[C@@]4(C(=O)Nc5cc(Cl)ccc54)[C@H]3c3cccc(Cl)c3F)cc2)C(C)(C)C)cc1 [compound 42]	677
CC(C)[C@@H](CS(=O)(=O)C(C)C)N1C(=O)[C@@](C)(CC(=O)NCCOCCOCCNc2cccc3c2C(=O)N(C2CCC(=O)NC2=O)C3=O)C[C@H](c2cccc(Cl)c2)[C@H]1c1ccc(Cl)cc1 (stereo partly drawn) [Cpd. No. 60, 2-((3R,5R,6S)-5-(3-chlorophenyl)-6-(4-chlorophenyl)-1-((S)-1-(isopropylsulfonyl)-3-methylbutan-2-yl)-3-methyl-2-oxopiperidin-3-yl)-N-(2-(2-(2-((2-(2,6-dioxopiperidin-3-yl)-1,3-dioxoisoindolin-4-yl)amino)ethoxy)ethoxy)ethyl)acetamide]	404
COc1cc(C(=O)NCCOCCOCCNc2cccc3c2C(=O)N(C2CCC(=O)NC2=O)C3=O)ccc1NC(=O)[C@@H]1N[C@@H](CC(C)(C)C)[C@](C#N)(c2ccc(Cl)cc2F)[C@H]1c1cccc(Cl)c1F (stereo partly drawn) [Cpd. No. 57, (2R,3S,4R,5S)-3-(3-chloro-2-fluorophenyl)-4-(4-chloro-2-fluorophenyl)-4-cyano-N-(4-((2-(2-(2-((2-(2,6-dioxopiperidin-3-yl)-1,3-dioxoisoindolin-4-yl)amino)ethoxy)ethoxy)ethyl)carbamoyl)-2-methoxyphenyl)-5-neopentylpyrrolidine-2-carboxamide]	13
Cc1ncsc1-c1ccc(CNC(=O)[C@@H]2C[C@@H](O)CN2C(=O)[C@@H](NC(=O)CCOCCOCCOCCNC(=O)c2ccc(NC(=O)[C@@H]3NC4(CCCCC4)[C@@]4(C(=O)Nc5cc(Cl)ccc54)[C@H]3c3cccc(Cl)c3F)cc2)C(C)(C)C)cc1 [compound 43]	445
O=C1CCC(N2Cc3c(NCc4cn(CCCNC(=O)c5ccc(NC(=O)[C@@H]6NC7(CCCCC7)[C@@]7(C(=O)Nc8cc(Cl)ccc87)[C@H]6c6cccc(Cl)c6F)cc5)cn4)cccc3C2=O)C(=O)N1 (stereo partly drawn) [Cpd. No. 39, (3′R,4'S,5′R)-6″-chloro-4′-(3-chloro-2-fluorophenyl)-N-(4-((3-(4-(((2-(2,6-dioxopiperidin-3-yl)-1-oxoisoindolin-4-yl)amino)methyl)-1H-imidazol-1-yl)propyl)carbamoyl)phenyl)-2″-oxodispiro[cyclohexane-1,2′-pyrrolidine-3′,3″-indoline]-5′-carboxamide]	1.5

Other lines, results leading:

IC50 [nM]	Structure (SMILES)
7.4	O=C1CCC(N2C(=O)c3cccc(NCCCOCCOCCOCCCNC(=O)c4ccc(NC(=O)[C@@H]5NC6(CCCCC6)[C@@]6(C(=O)Nc7cc(Cl)ccc76)[C@H]5c5cccc(Cl)c5F)nc4)c3C2=O)C(=O)N1 (stereo partly drawn) [Cpd. No. 25, (3′R,4'S,5′R)-6″-chloro-4′-(3-chloro-2-fluorophenyl)-N-(5-((3-(2-(2-(3-((2-(2,6-dioxopiperidin-3-yl)-1,3-dioxoisoindolin-4-yl)amino)propoxy)ethoxy)ethoxy)propyl)carbamoyl)pyridin-2-yl)-2″-oxodispiro[cyclohexane-1,2′-pyrrolidine-3′,3″-indoline]-5′-carboxamide]
17.8	O=C1CCC(N2C(=O)c3cccc(CCCOCCNC(=O)c4ccc(NC(=O)[C@@H]5NC6(CCCCC6)[C@@]6(C(=O)Nc7cc(Cl)ccc76)[C@H]5c5cccc(Cl)c5F)cc4)c3C2=O)C(=O)N1 (stereo partly drawn) [Cpd. No. 34, (3′R,4'S,5′R)-6″-chloro-4′-(3-chloro-2-fluorophenyl)-N-(4-((2-(3-(2-(2,6-dioxopiperidin-3-yl)-1,3-dioxoisoindolin-4-yl)propoxy)ethyl)carbamoyl)phenyl)-2″-oxodispiro[cyclohexane-1,2′-pyrrolidine-3′,3″-indoline]-5′-carboxamide]
5.2	CC1(C)CCC2(CC1)N[C@@H](C(=O)Nc1ccc(C(=O)NCCCOCCOCCOCCCNc3cccc4c3C(=O)N(C3CCC(=O)NC3=O)C4=O)cc1)[C@H](c1cccc(Cl)c1F)[C@]21C(=O)Nc2cc(Cl)ccc21 (stereo partly drawn) [Cpd. No. 53, (3′R,4'S,5′R)-6″-chloro-4′-(3-chloro-2-fluorophenyl)-N-(4-((3-(2-(2-(3-((2-(2,6-dioxopiperidin-3-yl)-1,3-dioxoisoindolin-4-yl)amino)propoxy)ethoxy)ethoxy)propyl)carbamoyl)phenyl)-4,4-dimethyl-2″-oxodispiro[cyclohexane-1,2′-pyrrolidine-3′,3″-indoline]-5′-carboxamide]
7	O=C1CCC(N2Cc3c(NC(=O)CCCCNC(=O)c4ccc(NC(=O)[C@@H]5NC6(CCCCC6)[C@@]6(C(=O)Nc7cc(Cl)ccc76)[C@H]5c5cccc(Cl)c5F)cc4)cccc3C2=O)C(=O)N1 (stereo partly drawn) [Cpd. No. 28, (3′R,4'S,5′R)-6″-chloro-4′-(3-chloro-2-fluorophenyl)-N-(4-((5-((2-(2,6-dioxopiperidin-3-yl)-1-oxoisoindolin-4-yl)amino)-5-oxopentyl)carbamoyl)phenyl)-2″-oxodispiro[cyclohexane-1,2′-pyrrolidine-3′,3″-indoline]-5′-carboxamide]
12	O=C1CCC(N2C(=O)c3cccc(NCCCCCNC(=O)c4ccc(NC(=O)[C@@H]5NC6(CCCCC6)[C@@]6(C(=O)Nc7cc(Cl)ccc76)[C@H]5c5cccc(Cl)c5F)cc4)c3C2=O)C(=O)N1 (stereo partly drawn) [Cpd. No. 10, (3′R,4'S,5′R)-6″-chloro-4′-(3-chloro-2-fluorophenyl)-N-(4-((5-((2-(2,6-dioxopiperidin-3-yl)-1,3-dioxoisoindolin-4-yl)amino)pentyl)carbamoyl)phenyl)-2″-oxodispiro[cyclohexane-1,2′-pyrrolidine-3′,3″-indoline]-5′-carboxamide]
2.9	O=C1CCC(N2Cc3c(CCCOCCNC(=O)c4ccc(NC(=O)[C@@H]5NC6(CCCCC6)[C@@]6(C(=O)Nc7cc(Cl)ccc76)[C@H]5c5cccc(Cl)c5F)cc4)cccc3C2=O)C(=O)N1 (stereo partly drawn) [Cpd. No. 33, (3′R,4'S,5′R)-6″-chloro-4′-(3-chloro-2-fluorophenyl)-N-(4-((2-(3-(2-(2,6-dioxopiperidin-3-yl)-1-oxoisoindolin-4-yl)propoxy)ethyl)carbamoyl)phenyl)-2″-oxodispiro[cyclohexane-1,2′-pyrrolidine-3′,3″-indoline]-5′-carboxamide]
8	O=C1CCC(N2C(=O)c3cccc(NCCOCCOCCNC(=O)c4ccc(NC(=O)[C@@H]5NC6(CCCCC6)[C@@]6(C(=O)Nc7cc(Cl)ccc76)[C@H]5c5cccc(Cl)c5F)cn4)c3C2=O)C(=O)N1 (stereo partly drawn) [Cpd. No. 26, (3′R,4'S,5′R)-6″-chloro-4′-(3-chloro-2-fluorophenyl)-N-(6-((2-(2-(2-((2-(2,6-dioxopiperidin-3-yl)-1,3-dioxoisoindolin-4-yl)amino)ethoxy)ethoxy)ethyl)carbamoyl)pyridin-3-yl)-2″-oxodispiro[cyclohexane-1,2′-pyrrolidine-3′,3″-indoline]-5′-carboxamide]
